Laboratory results from ChEMBL document CHEMBL6177948, “Discovery of potential Leonurine-based therapeutic lead MJ210 attenuates Parkinson's disease pathogenesis via NF-κB and MAPK pathways: Mechanistic insights from in vitro and in vivo rotenone models” (Eur J Med Chem, 2025).

System: SH-SY5Y
Test: Neuroprotective activity against rotenone-induced cytotoxicity in human SH-SY5Y cells assessed as increase in cell viability at 1 to 20 uM incubated for 24 hrs by MTT assay relative to control
Assay type: functional
Conditions: dose 1-20 µM

Row | SMILES | Activity
1 | COc1cc(CCC(=O)N2CCN(c3ccccc3)CC2)cc(OC)c1OC(=O)c1ccccn1 | >80%
2 | COc1ccc(N2CCN(C(=O)CCc3cc(OC)c(OC(=O)c4ccccn4)c(OC)c3)CC2)cc1 | >80%
3 | COc1cc(CCC(=O)Nc2nc3ccccc3s2)cc(OC)c1OC(=O)C1CCCN1C(=O)OC(C)(C)C (stereo unspecified) | >80%
4 | COc1cc(CCC(=O)NCc2ccc3c(c2)OCO3)cc(OC)c1OC(=O)c1ccccn1 | >80%
5 | COc1cc(/C=C/C(=O)N2CCCCC2)cc(OC)c1OC(=O)c1ccccn1 | >80%
6 | COc1cc(CCC(=O)N2CCCCC2)cc(OC)c1OC(=O)C1CCCN1C(=O)OC(C)(C)C (stereo unspecified) | >80%
